Test results published in article PMC5567267, “Discovery of a potent protein kinase D inhibitor: insights in the binding mode of pyrazolo[3,4-d]pyrimidine analogues” (MedChemComm, 2017).
Like-named read-outs stand apart in the source and are kept apart here.

Biological target: T1, PKD2 (Homo sapiens, UniProt Q9BZL6)
T1 construct: made in house; host or cells: HEK293T cells, transient transfection with pDEST27-PRKD2, stimulated with 500 nM PDB before lysis
T1 sequence (Q9BZL6 1-878): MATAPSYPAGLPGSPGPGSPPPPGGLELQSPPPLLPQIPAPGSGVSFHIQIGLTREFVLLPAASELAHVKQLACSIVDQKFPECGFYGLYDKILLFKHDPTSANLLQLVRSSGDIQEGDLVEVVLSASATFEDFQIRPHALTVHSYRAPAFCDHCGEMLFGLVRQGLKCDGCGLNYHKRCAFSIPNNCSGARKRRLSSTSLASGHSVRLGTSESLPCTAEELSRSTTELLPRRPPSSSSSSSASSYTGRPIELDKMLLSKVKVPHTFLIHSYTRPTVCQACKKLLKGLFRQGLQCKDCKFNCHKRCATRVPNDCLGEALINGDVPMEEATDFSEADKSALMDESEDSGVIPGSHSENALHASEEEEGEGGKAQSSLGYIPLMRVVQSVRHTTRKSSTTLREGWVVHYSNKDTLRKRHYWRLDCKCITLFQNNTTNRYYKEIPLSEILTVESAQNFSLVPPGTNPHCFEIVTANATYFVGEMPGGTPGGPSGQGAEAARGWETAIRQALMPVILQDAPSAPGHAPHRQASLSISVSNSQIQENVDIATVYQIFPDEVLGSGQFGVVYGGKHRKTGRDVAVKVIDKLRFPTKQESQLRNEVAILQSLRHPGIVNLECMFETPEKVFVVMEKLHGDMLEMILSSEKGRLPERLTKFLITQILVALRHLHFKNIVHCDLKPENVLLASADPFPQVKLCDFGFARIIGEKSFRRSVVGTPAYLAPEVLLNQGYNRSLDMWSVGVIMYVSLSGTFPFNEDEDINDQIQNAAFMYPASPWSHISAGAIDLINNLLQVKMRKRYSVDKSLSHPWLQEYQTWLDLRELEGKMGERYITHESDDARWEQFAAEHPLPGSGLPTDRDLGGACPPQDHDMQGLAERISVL
Experiment: PKD2 screening assay (in vitro radiometric kinase assay)
Format: biochemical
Settings: for remaining activity at 1 µM: 10 min; for IC50: radiometric
Procedure: All 35 described analogues were characterized in vitro via an initial screening at 1 μM against PKD2. […]
scanning of a coomassie stained SDS-polyacrylamide gel.
An in vitro radiometric assay was used to determine the inhibition of PKD in presence of various compounds at a […]
determinations. Reactions were carried out in 40µl of a mixture containing 50mM Tris-HCl pH 7.4, 10mM MgCl2, 50ng of PDB stimulated GST-PKD2, 4µg/ml Syntide-2 (Sigma Aldrich, St. Louis, USA), 25µM ATP and 2µCi [γ-32P]ATP (Perkin-Elmer, Massachusetts, USA). After 10’ the reaction was stopped by spotting 30µl of the reaction on whatmann P81 filter paper. The filter papers were washed 3 times in 0.5% phosphoric acid, followed by one wash in 100% acetone. Subsequently the papers were air-dried and counted using the Tri-Carb 2810 TR scintillation counter (Perkin-Elmer). Percentage of PKD2 inhibition was determined relative to a condition where no inhibitor was added (0,1% dimethylsulfoxide (DMSO)). Graphs were plotted and IC50 values were determined using the GraphPad software package (Prism). […]

[1] = ESI table, initial screening of all analogues at 1µM, read-out: % PKD2 activity remaining (1µM) (average ±SD)
[2] = compound at 1 μM, PDB stimulated GST-PKD2, Syntide-2, 25µM ATP, relative to no inhibitor (DMSO), read-out: % PKD 2 activity remaining (1 μM) (Average ± SD)
[3] = PDB stimulated GST-PKD2, Syntide-2, 25µM ATP

| Compound | remaining activity at 1 µM [1] | remaining activity at 1 µM [2] | IC50 [3] | % PKD2 activity remaining (1µM) (average ±SD) (ESI table, initial screening of all analogues at 1µM) |
| --- | --- | --- | --- | --- |
| CC(C)(C)n1nc(Cc2cccc(Cl)c2Cl)c2c(N)ncnc21 [Compound 7g, 1-tert-butyl-3-(2,3-dichlorobenzyl)-1H-pyrazolo[3,4-d]pyrimidin-4-amine] | 90 ± 5.1% |  |  |  |
| CCCCNc1nc(N)c2c(-c3ccc(OC)cc3)nn(C(C)(C)C)c2n1 [Compound 13d, N6-butyl-1-tert-butyl-3-(4-methoxyphenyl)-1H-pyrazolo[3,4-d]pyrimidine-4,6-diamine] | 80 ± 2.5% |  |  |  |
| Cn1nc(CCCCc2ccccc2)c2c(N)ncnc21 [Compound 7l, 1-methyl-3-(4-phenylbutyl)-1H-pyrazolo[3,4-d]pyrimidin-4-amine] | 98 ± 6.4% |  |  |  |
| CCCCNc1nc(N)c2c(-c3cccc(Cl)c3)nn(C(C)(C)C)c2n1 [Compound 13b, N6-butyl-1-tert-butyl-3-(3-chlorophenyl)-1H-pyrazolo[3,4-d]pyrimidine-4,6-diamine] | 81 ± 6.6% |  |  |  |
| CCCCNc1nc(N)c2c(-c3ccc(F)cc3)nn(C(C)(C)C)c2n1 [Compound 13c, N6-butyl-1-tert-butyl-3-(4-fluorophenyl)-1H-pyrazolo[3,4-d]pyrimidine-4,6-diamine] | 69 ± 8.3% |  |  |  |
| Cn1nc(CCCc2ccccc2)c2c(N)ncnc21 [Compound 7j, 1-methyl-3-(3-phenylpropyl)-1H-pyrazolo[3,4-d]pyrimidin-4-amine] | 101 ± 3.3% |  |  |  |
| CC(C)(C)n1nc(-c2ccccc2)c2c(N)ncnc21 [Compound 6a, 1-tert-butyl-3-phenyl-1H-pyrazolo[3,4-d]pyrimidin-4-amine] | 77 ± 2.9% | 76 ± 2.9% | 9490 nM |  |
| CC(C)(C)n1nc(-c2ccccc2F)c2c(N)ncnc21 [Compound 6d, 1-tert-butyl-3-(2-fluorophenyl)-1H-pyrazolo[3,4-d]pyrimidin-4-amine] | 83 ± 9.4% |  |  |  |
| CC(C)(C)n1nc(CCCc2ccccc2)c2c(N)ncnc21 [Compound 7i, 1-tert-butyl-3-(3-phenylpropyl)-1H-pyrazolo[3,4-d]pyrimidin-4-amine] | 101 ± 8.3% | 101 ± 8.3% | > 50000 nM |  |
| CCCCNc1nc(N)c2c(-c3ccsc3)nn(C(C)(C)C)c2n1 [Compound 13e, N6-butyl-1-tert-butyl-3-(3-thienyl)-1H-pyrazolo[3,4-d]pyrimidine-4,6-diamine] | 82 ± 7.2% |  |  |  |
| CC(C)(C)n1nc(-c2ccc3ccccc3c2)c2c(N)ncnc21 [Compound 6h, 1-tert-butyl-3-(2-naphthyl)-1H-pyrazolo[3,4-d]pyrimidin-4-amine] | 59 ± 5% |  |  |  |
| Cn1nc(Cc2cccc(Cl)c2)c2c(N)ncnc21 [Compound 7d, 3-(3-chlorobenzyl)-1-methyl-1H-pyrazolo[3,4-d]pyrimidin-4-amine] | 83 ± 6.4% | 83 ± 6.4% | 4840 nM |  |
| Cn1nc(Cc2cccc3ccccc23)c2c(N)ncnc21 [Compound 7m, 1-methyl-3-(1-naphthylmethyl)-1H-pyrazolo[3,4-d]pyrimidin-4-amine] | 64 ± 3.9% | 64 ± 3.9% | 4660 nM |  |
| CC(C)(C)n1nc(-c2ccc(F)cc2)c2c(N)ncnc21 [Compound 6b, 1-tert-butyl-3-(4-fluorophenyl)-1H-pyrazolo[3,4-d]pyrimidin-4-amine] | 81 ± 4% |  |  |  |
| COc1ccc(-c2nn(C(C)(C)C)c3ncnc(N)c23)cc1 [Compound 6e, 1-tert-butyl-3-(4-methoxyphenyl)-1H-pyrazolo[3,4-d]pyrimidin-4-amine] | 80 ± 7% |  |  |  |
| CC(C)(C)n1nc(Cc2ccc(Cl)c(Cl)c2)c2c(N)ncnc21 [Compound 7h, 1-tert-butyl-3-(3,4-dichlorobenzyl)-1H-pyrazolo[3,4-d]pyrimidin-4-amine] | 78 ± 3.3% |  |  |  |

| Compound | remaining activity at 1 µM [1] | remaining activity at 1 µM [2] | IC50 [3] | % PKD2 activity remaining (1µM) (average ±SD) (ESI table, initial screening of all analogues at 1µM) |
| --- | --- | --- | --- | --- |
| CCCCNc1nc(N)c2c(-c3ccc4ccccc4c3)nn(C(C)(C)C)c2n1 [Compound 13g, N6-butyl-1-tert-butyl-3-(2-naphthyl)-1H-pyrazolo[3,4-d]pyrimidine-4,6-diamine] | 76 ± 2.7% |  |  |  |
| CC(C)(C)n1nc(CCCCc2ccccc2)c2c(N)ncnc21 [Compound 7k, 1-tert-butyl-3-(4-phenylbutyl)-1H-pyrazolo[3,4-d]pyrimidin-4-amine] | 92.8 ± 5.8% | 93 ± 5.8% | > 50000 nM |  |
| CCCCNc1nc(N)c2c(-c3cccc(C(F)(F)F)c3)nn(C(C)(C)C)c2n1 [Compound 13f, N6-butyl-1-tert-butyl-3-[3-(trifluoromethyl)phenyl]-1H-pyrazolo[3,4-d]pyrimidine-4,6-diamine] | 91 ± 8.5% |  |  |  |
| CC(C)(C)n1nc(-c2ccccc2Cl)c2c(N)ncnc21 [Compound 6c, 1-tert-butyl-3-(2-chlorophenyl)-1H-pyrazolo[3,4-d]pyrimidin-4-amine] | 73 ± 2.4% |  |  |  |
| CC(C)(C)n1nc(-c2ccc(C#N)cc2)c2c(N)ncnc21 [Compound 6j, 4-(4-amino-1-(tert-butyl)-1H-pyrazolo[3,4-d]pyrimidin-3-yl)benzonitrile] | 97 ± 0.8% |  |  |  |
| CC(C)(C)n1nc(Cc2ccccc2Cl)c2c(N)ncnc21 [Compound 7b, 1-tert-butyl-3-(2-chlorobenzyl)-1H-pyrazolo[3,4-d]pyrimidin-4-amine] | 41 ± 2.6% | 41 ± 2.6% | 451 nM |  |
| CC(C)(C)n1nc(Cc2cccc(Cl)c2)c2c(N)ncnc21 [Compound 7c, 1-tert-butyl-3-(3-chlorobenzyl)-1H-pyrazolo[3,4-d]pyrimidin-4-amine] | 56 ± 2.4% | 55 ± 2.4% |  |  |
| C=Cc1ccc(-c2nn(C(C)(C)C)c3ncnc(N)c23)cc1 [Compound 6g, 1-(tert-butyl)-3-(4-vinylphenyl)-1H-pyrazolo[3,4-d]pyrimidin-4-amine] | 84 ± 9.4% |  |  |  |
| CC(C)(C)c1ccc(-c2nn(C(C)(C)C)c3ncnc(N)c23)cc1 [Compound 6k, 1-(tert-butyl)-3-(4-(tert-butyl)phenyl)-1H-pyrazolo[3,4-d]pyrimidin-4-amine] | 93 ± 1.5% |  |  |  |
| CC(C)(C)n1nc(Cc2cccc(Br)c2)c2c(N)ncnc21 [Compound 7f, 3-(3-bromobenzyl)-1-tert-butyl-1H-pyrazolo[3,4-d]pyrimidin-4-amine] | 59 ± 3.3% |  |  |  |
| CC(C)(C)n1nc(Cc2ccccc2Br)c2c(N)ncnc21 [Compound 7e, 3-(2-bromobenzyl)-1-tert-butyl-1H-pyrazolo[3,4-d]pyrimidin-4-amine] | 43 ± 6.6% | 43 ± 6.6% | 535 nM |  |
| CC(C)(C)n1nc(Cc2ccccc2)c2c(N)ncnc21 [Compound 7a, 3-benzyl-1-tert-butyl-1H-pyrazolo[3,4-d]pyrimidin-4-amine] | 35 ± 1.3% | 35 ± 1.3% | 449 nM |  |
| CC(C)(C)n1nc(-c2cccc3ccccc23)c2c(N)ncnc21 [Compound 6i, 1-tert-butyl-3-(1-naphthyl)-1H-pyrazolo[3,4-d]pyrimidin-4-amine] | 34 ± 0.4% | 34 ± 0.4% | 403 nM |  |
| 2-acetyl-5-(4-amino-1-(tert-butyl)-1H-pyrazolo[3,4-d]pyrimidin-3-yl)benzaldehyde [Compound 6f] |  |  |  | 81 ±4.5% |
| CCCCNc1nc(N)c2c(-c3ccccc3)nn(C(C)(C)C)c2n1 [Compound 13a, N6-butyl-1-tert-butyl-3-phenyl-1H-pyrazolo[3,4-d]pyrimidine-4,6-diamine] | 77 ± 5.1% |  |  |  |
